Source: patent publication US7205306B2, “Substituted pyrazinones, pyridines and pyrimidines as corticotropin releasing factor ligands” (Bristol-Myers Squibb Pharma Company, priority 2001, dated 2007)
Values joined by “and” are separate entries in the source; they are usually repeats but may differ in a detail not shown here. Equal values may be shown once.

| SMILES | melting point |
| --- | --- |
| CCC(CC)Nc1cc(N2CCc3cc(Cl)cc(Cl)c32)nc(C)n1 [Example 1, 4-(5,7-dichloro-2,3-dihydro-1H-indol-1-yl)-6-(1-ethylpropylamino)-2-methylpyrimidine] | 116 to 117 °C |
| CCC(CC)Nc1nc(C)nc(N2CCc3cc(Cl)cc(Cl)c32)c1Cl [Example 2, 5-chloro-4-(5,7-dichloro-2,3-dihydro-1H-indol-1-yl)-6-(1-ethylpropylamino)-2-methylpyrimidine] | 132 to 134 °C |
| CCC(CC)Nc1nc(C)nc(N2CCc3cc(Cl)cc(Cl)c32)c1Br [Example 3, 5-bromo-4-(5,7-dichloro-2,3-dihydro-1H-indol-1-yl)-6-(1-ethylpropylamino)-2-methylpyrimidine] | 136 to 138 °C |
| CCC(CC)Nc1nc(C)nc(N2CCc3cc(Cl)cc(Cl)c32)c1C=O [Example 6, 4-(5,7-dichloro-2,3-dihydro-1H-indol-1-yl)-6-(1-ethylpropylamino)-5-formyl-2-methylpyrimidine] | 182 to 184 °C |
| CCC(CC)Nc1nc(C)nc(N2CCc3cc(Cl)cc(Cl)c32)c1CO [Example 7, 4-(5,7-dichloro-2,3-dihydro-1H-indol-1-yl)-6-(1-ethylpropylamino)-5-hydroxymethyl-2-methylpyrimidine] | 150 to 152 °C |
| CCC(CC)Nc1nc(C)nc(N2CCc3cc(OC)cc(Cl)c32)c1C#N [Example 59, 4-(7-chloro-5-methoxy-2,3-dihydro-1H-indol-1-yl)-5-cyano-6-(1-ethylpropylamino)-2-methylpyrimidine] | 189 to 190 °C and 192 to 194 °C |
| CCC(CC)Nc1nc(C)nc(N2CCc3cc(OC)cc(Cl)c32)c1C=O [Example 60, 4-(7-chloro-5-methoxy-2,3-dihydro-1H-indol-1-yl)-6-(1-ethylpropylamino)-5-formyl-2-methylpyrimidine] | 178 to 179 °C |
| CCC(COC)Nc1nc(C)nc(N2CCc3cc(OC)cc(Cl)c32)c1I (stereo not drawn) [Example 74, 4-(7-chloro-5-methoxy-2,3-dihydro-1H-indol-1-yl)-5-iodo-6-[1-(1-methoxymethyl)propylamino]-2-methylpyrimidine] | 150 to 152 °C |
| CCC(COC)Nc1nc(C)nc(N2CCc3cc(OC)cc(Cl)c32)c1C#N (stereo not drawn) [Example 75, 4-(7-chloro-5-methoxy-2,3-dihydro-1H-indol-1-yl)-5-cyano-6-[1-(1-methoxymethyl)propylamino]-2-methylpyrimidine] | 182 to 183 °C |
| CCC(COC)Nc1nc(C)nc(N2CCc3cc(OC)cc(Cl)c32)c1C=O (stereo not drawn) [Example 76, 4-(7-chloro-5-methoxy-2,3-dihydro-1H-indol-1-yl)-5-formyl-6-[1-(1-methoxymethyl)propylamino]-2-methylpyrimidine] | 150 to 153 °C |
| CCC(C)Nc1cc(N2CCc3cc(OC)cc(Cl)c32)nc(C)n1 (stereo not drawn) [Example 310, 4-(7-chloro-5-methoxy-2,3-dihydro-1H-indol-1-yl)-6-(1-methylpropylamino)-2-methylpyrimidine] | 102 to 105 °C |
| CCC(CC)n1cc(Cl)nc(N2CCc3cc(Cl)cc(Cl)c32)c1=O [Example 401, 5-Chloro-3-(5,7-dichloro-2,3-dihydro-1H-indol-1-yl)-1-(1-ethylpropyl)-2(1H)-pyrazinone] | 168 to 170 °C |
| CCC(CCOC)n1cc(Cl)nc(N2CCc3cc(Cl)cc(Cl)c32)c1=O (stereo not drawn) [Example 410, 5-Chloro-3-(5,7-dichloro-2,3-dihydro-1H-indol-1-yl)-1-(1-ethyl-3-methoxypropyl)-2(1H)-pyrazinone] | 95 to 97 °C |
| CCC(COC)n1cc(Cl)nc(N2CCc3cc(OC)cc(Cl)c32)c1=O (stereo not drawn) [Example 413, 5-Chloro-3-(7-chloro-5-methoxy-2,3-dihydro-1H-indol-1-yl)-1-[1-(methoxymethyl)propyl]-2(1H)-pyrazinone] | 131 to 133 °C |
| CCC(CC)n1cc(C)nc(N2CCc3cc(Cl)cc(Cl)c32)c1=O [Example 451, 3-(5,7-Dichloro-2,3-dihydro-1H-indol-1-yl)-1-(1-ethylpropyl)-5-methyl-2(1H)-pyrazinone] | 137 to 139 °C |
